Reference: patent US12533095B1, “Airway mucus scoring system” (The Regents of the University of California, priority 2016, dated 2026)

Key:
[1] = Maximum bronchodilator reversibility test (MBRT); format: in vivo, human
Experimental: (§1) Treatment response to bronchodilators and systemic corticosteroids: Maximum Bronchodilator Reversibility tests (MBRT's) were performed on baseline visits 2 and 3. MBRT was determined by measuring spirometry before and after 360-720 meg of albuterol sulfate delivered by metered-dose inhaler. Patients also underwent a systemic corticosteroid response test (SCRT), which involved an intramuscular injection of triamcinolone acetonide (40 mg) on visit 2 and repeat characterization including MBRT and blood draw on visit 3 (2-4 weeks later). Maximum bronchodilator reversibility test (MBRT): Subjects were asked to hold their bronchodilator medications prior to spirometry testing. Following baseline spirometry, 4 puffs of albuterol (360 mcg) were administered. Spirometry was then repeated 15 minutes later. If the change in FEV1 from the spirometry maneuver performed after 4 puffs was greater than 5%, an additional 2 puffs of albuterol (180 mcg) were then administered and spirometry was repeated again 15 minutes later. If the change in FEV1 after 6 puffs was greater than 5%, an additional 2 puffs of albuterol were administered with repeat spirometry after an additional 15 minutes. If the change was less than 5% after 4 or 6 puffs of albuterol, the procedure was stopped and the last maneuver was taken to be the highest achievable measure. No more than 8 puffs of albuterol were administered as part of the MBRT procedure. MBRT was measured on baseline visits 2 and 3 (FIG. 5).

[2] = Bronchodilator reversibility testing repeated after intramuscular corticosteroid (combined SCRT and MBRT); format: in vivo, human; conditions: patients with high mucus scores; bronchodilator reversibility testing repeated after intramuscular steroid
Experimental: as §1, with “Systemic Corticosteroid Responsiveness Test (SCRT): Patients were given an intramuscular injection of triamcinolone acetonide (40 mg) following complete characterization on visit 2. Repeat characterization post steroid injection (excluding MDCT), was carried out on visit 3 (2-4 weeks later) (FIG. 5). Treatment” for “Treatment”, “If the change in FEV1 after 6 puffs was greater than 5%, an additional 2 puffs of albuterol were administered with repeat spirometry after an additional 15 minutes. If the change was less than 5% after 4 or 6 puffs of albuterol, the procedure was stopped and the last maneuver was taken to be the highest achievable measure. No more than 8 puffs of albuterol were administered as part of the MBRT procedure.” left out

[3] = Systemic corticosteroid responsiveness test (SCRT); format: in vivo, human
Experimental: Systemic Corticosteroid Responsiveness Test (SCRT): Patients were given an intramuscular injection of triamcinolone acetonide (40 mg) following complete characterization on visit 2. Repeat characterization post steroid injection (excluding MDCT), was carried out on visit 3 (2-4 weeks later) (FIG. 5). Treatment response to bronchodilators and systemic corticosteroids: Maximum Bronchodilator Reversibility tests (MBRT's) were performed on baseline visits 2 and 3. MBRT was determined by measuring spirometry before and after 360-720 meg of albuterol sulfate delivered by metered-dose inhaler. Patients also underwent a systemic corticosteroid response test (SCRT), which involved an intramuscular injection of triamcinolone acetonide (40 mg) on visit 2 and repeat characterization including MBRT and blood draw on visit 3 (2-4 weeks later). Induced Sputum: Sputum induction was done on visits 2 and 3. For safety, induced sputum was only collected from patients whose FEV1 was >50% predicted after albuterol pretreatment (360 μg). Total and differential cell counts were quantified in a central laboratory (Wake Forest University) using methods previously described^5,6. Gene expression for type 2 cytokines [interleukin (IL)-4, IL-5, and IL-13] and for airway gel-forming mucins (MUC5AC, MUC5B) were measured in RNA isolated from induced sputum cell pellets using real-time Taqman-based quantitative PCR (qPCR) 7 as described herein (including Table 3). RNA isolation and qPCR were done in a central laboratory (University of California at San Francisco).

[4] = test system: primary human airway epithelial cells; assay: Apical secretion of Eotaxin-3 (CCL26) at air liquid interface; format: cell-based; conditions: 10 ng/ml in basolateral media for 4 days; vs untreated control (FIG. 11E)
Description: Apical secretion of Eotaxin-3 (CCL26): Human airway epithelial cells (AECs) were isolated from tracheas collected from cadaveric lung donors from the California Donor Network as a part of a separate study (Gordon et al., Proc Natl Acad Sci USA. 113, 8765-8770. doi: 8710.1073/pnas.1601914113. Epub 160191216 Jul. 1601914118. (2016)). Cells were expanded in 5% FCS in DMEM/F12 supplemented with a rho kinase inhibitor (Y-27632 SellekChem) to promote proliferation (Liu et al., Am J Pathol. 180, 599-607. doi: 510.1016/j.ajpath.2011.1010.1036. Epub 211 Dec. 1018. (2012)). Once cells reached 90% confluency flasks were washed and cells trypsinized with TrypLE (Gibco). Subconfluent cells were plated to submerged transwell inserts, using the modified Schlegel culture conditions previously described (Chu et al., Gene Ther. 22, 822-829. doi: 810.1038/gt.2015.1053. Epub 2015 July 1032. (2015)). Once cells reached confluence, the cultures were taken to air-liquid interface (ALI) in PnuemaCult Maintenance media (StemCell Technologies) and maintained for 21-days. At day 21, cells were treated with 10 ng/ml recombinant human IL-13 (R&D systems) in the basolateral media for 4 days. To measure eotaxins secreted at the apical surface of ALI cultures. 300 μL warmed PBS was added to the surface of the cells. […]

[5] = test system: eosinophils; assay: Cysteine cross-linking assay (BODIPY labeled cysteine exposed to eosinophils); format: cell-based, human; conditions: unstimulated and PMA-stimulated eosinophils; vs catalase-free control (FIG. 11H)
Experimental: Eosinophil Isolation and stimulation of respiratory burst: Eosinophils were purified from the peripheral blood of 4 atopic asthmatic subjects (age 48±23 years). Each subject donated 100 mL of blood on one or more occasions. All subjects signed consent forms and usage was approved by the UCSF Committee on Human Research. Eosinophils were isolated from whole blood using a three-step method in which we first pelleted the cells, followed by water lysis to remove red blood cells and finally eosinophils were purified using immunomagnetic beads (Human Eosinophil Isolation kit. Miltenyi Biotec). Briefly, whole blood was collected in EDTA (purple-top) tubs and pelleted at 1500 g for 15 minutes at 4° C. The plasma on top was removed and cell pellet retained for two cycles of water lysis. […]
Cysteine cross-linking assay: To explore cystine formation generated by eosinophil stimulation, BODIPY FL L-cysteine was generated from […] BODIPY FL L-Cystine (ThermoFisher Scientific) in Tyrode's Salts by reduction with one quarter volume packed TCEP-Gel (ThermoFisher Scientific) for 1 hour at 25° C. The reaction yields an 8 to 10-fold increase in fluorescence at 490 nm/520 nm Ex/Em. […] The decrease in fluorescence at 490 nm/520 nm Ex/Em was monitored over 2 hours at 37° C. on a Synergy H1 plate reader (BioTek Instruments) with the addition of 50,000 peripheral blood eosinophils in 100 μl Tyrode's Salts. […]

CC(C)(C)NCC(O)c1ccc(O)c(CO)c1 (stereo not shown) [albuterol]
patients with residual abnormalities in FEV1 (FEV1 <80% predicted) following maximum bronchodilator testing ([1]; asthma patients with a high mucus score): 73%
patients with residual FEV1 abnormalities after maximum bronchodilation testing ([1]; asthma patients with a zero-mucus score): 20%
mean post-bronchodilator FEV1 in the high mucus group lower than in the zero-mucus group ([1]; asthma patients, inhaled albuterol (540-720 mcg), high vs zero mucus group): 24%

CC1(C)O[C@@H]2C[C@H]3[C@@H]4CCC5=CC(=O)C=C[C@]5(C)[C@@]4(F)[C@@H](O)C[C@]3(C)[C@]2(C(=O)CO)O1 [triamcinolone acetonide]
proportion of patients whose FEV1 remained below 80% [2]: half
patients with residual abnormalities in FEV1 following the SCRT ([3]; asthma patients with high mucus scores, intramuscular 40 mg): 72%
patients with residual FEV1 abnormalities following the SCRT ([3]; asthma patients with zero mucus scores, intramuscular 40 mg): 28%
mean post steroid FEV1 lower in the high-mucus group than the zero-mucus group ([3]; asthma patients, intramuscular 40 mg, high vs zero mucus group): 21%
Sputum eosinophil % following treatment with intramuscular steroid ([3]; patients with a high mucus score (FIG. 10A)): remains significantly increased
Gene expression for interleukin 13 in sputum cells following treatment with intramuscular steroid ([3]; patients with a high mucus score (FIG. 10B)): remains significantly increased
Gene expression for interleukin 5 in sputum cells following treatment with intramuscular steroid ([3]; patients with a high mucus score (FIG. 10C)): remains significantly increased
FEV1% predicted post steroid treatment ([3]; subjects with a high mucus score (FIG. 4B)): remained significantly decreased

IL-13: recombinant human IL-13 (R&D systems) used to stimulate airway epithelial cells
concentration of eotaxin-3 in apical mucus secretions [4]: marked increases

catalase
cystine dimer formation [5]: significantly decreased
